Where two headings read alike, the source gives them in different places.
Columns and labels:
LXRa (NR1H2) = test: NCGC_LXR_Agonist: GAL4 BLAM Reporter gene assay: LXRa; format: cell-based, human; settings: agonist mode
Procedure: These assays measure binding constants and enzyme inhibition values for nuclear receptors. The targets include [drawing 67] , [drawing 68] , [drawing 69] , [drawing 70] , [drawing 71] , [drawing 72] , [drawing 73] , [drawing 74] , [drawing 75] and [drawing 76] . Each of the nuclear receptor targets was measured in agonist mode. Assays were run at the NIH Chemical Genomics Center (Rockville, MD).
Cell-based HTS Assays: These assays measuring binding constants and enzyme inhibition values for nuclear receptors. The targets include AR, ER, FXR, LXR, PPARα, PPARδ, PPARγ, RXRα, RXRβ and PXR. Each of the nuclear receptor targets was measured in both agonist and antagonist mode, but the antagonist data is still undergoing analysis due to possible interference between cytotoxicity and assay activity, so antagonist mode data were not used in the present analysis. Assays were run at the NIH Chemical Genomics Center (Rockville, MD) as part of the Tox21 collaboration. […] The R^2 was required to be ≥0.5. Values where only the highest concentration exceeded 50% activity were excluded to eliminate weak or false positives. Detailed description of the methods, data and analysis methods for this dataset will be presented in a separate publication.

Rat Liver [1] = settings: chronic study, ref ToxRefDB, cited from earlier work
Rat Liver [2] = settings: chronic study, ref ToxRefDB, cited from earlier work; remark: listed apart in the source
Rat Liver [3] = settings: chronic study, ref ToxRefDB, cited from earlier work; remark: listed apart in the source
PXR (NR1I2) = molecular target: T1, PXR (NR1I2) (Homo sapiens, UniProt O75469); test: ATG_PXRE_CIS: Factorial reporter gene assay (HepG2); format: cell-based; parameters: endogenous in cells; host or cells: HepG2
T1 sequence (O75469 1-434): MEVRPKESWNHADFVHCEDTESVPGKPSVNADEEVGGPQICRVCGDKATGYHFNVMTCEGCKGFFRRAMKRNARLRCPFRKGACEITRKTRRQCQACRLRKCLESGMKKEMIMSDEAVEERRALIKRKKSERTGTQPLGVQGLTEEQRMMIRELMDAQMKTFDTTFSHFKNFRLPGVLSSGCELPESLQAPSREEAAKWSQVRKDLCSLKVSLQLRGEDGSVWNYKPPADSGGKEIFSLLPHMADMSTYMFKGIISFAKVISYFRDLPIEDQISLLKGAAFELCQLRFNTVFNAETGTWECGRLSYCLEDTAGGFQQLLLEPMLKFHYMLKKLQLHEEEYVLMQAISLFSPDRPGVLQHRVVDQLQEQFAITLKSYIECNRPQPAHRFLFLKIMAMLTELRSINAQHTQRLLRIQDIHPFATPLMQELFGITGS
In short: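 Compounds at seven concentrations (top at MTC, threefold serial) were applied to transfected HepG2 hepatoma cells, with PXRE scored by cis-element reporters and ERRg, FXR and PPARg scored by trans one-hybrid nuclear receptor reporters.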

ABCB1 = test: CLZD_ABCB1: Change in expression of ABCB1 (primary human hepatocytes); format: cell-based; settings: 24 hr
Procedure: (§1) This is a collection of multiplexed gene expression assays focused on Phase I and II xenobiotic metabolizing enzymes and transporters. Human primary cell cultures were treated with chemicals at 5 concentrations (0.004-40 [drawing 42] M) for 6, 24 and 48 hr. Concentration- and time-response profiles of chemicals were measured by the expression of key nuclear receptor target genes, activities of CYP1A enzymes (EROD), and cell morphology. Fourteen gene targets were monitored by quantitative nuclease protection assay including: six representative cytochrome P-450 genes, four hepatic transporters, three Phase II conjugating enzymes, and one endogenous metabolism gene involved in cholesterol synthesis. The target genes associated with nuclear receptor pathways are as follows: [drawing 43] and [drawing 44] with [drawing 45]; [drawing 46] , [drawing 47] , [drawing 48] , [drawing 49] , [drawing 50] and [drawing 51] with [drawing 52]; [drawing 53] , [drawing 54] , [drawing 55] and [drawing 56] with [drawing 57]; [drawing 58] with [drawing 59]; and [drawing 60] with [drawing 61] . Assays were run in primary human hepatocyte cultures by CellzDirect Invitrogen Inc. (Durham, NC), in collaboration with EPA.
(§2) Multiplexed Gene Expression in Human Primary Hepatocytes: This is a collection of multiplexed gene expression assays focused on Phase I and II metabolic enzymes and transporters. […] Fourteen gene targets were monitored by quantitative nuclease protection assay: six representative cytochrome P450 genes, four hepatic transporters, three Phase II conjugating enzymes, and one endogenous metabolism gene involved in cholesterol synthesis. Cells were exposed at 5 concentrations (0.004-40 µM) for 6, 24 or 48 hr. Gene targets are sentinels for five nuclear receptor signaling pathways: AhR, CAR, PXR, FXR, and PPARα. All gene are associated with nuclear receptor pathways: CYP1A1 and CYP1A2 with AHR; ABCB1, ABCG2, CYP2B6, CYP2C9, CYP2C19 and UGT1A1 with CAR; CYP3A4, GSTA2, SLCO1B1 and SULT2A1 with PXR; HMGCS2 with PPARA; and ABCB11 with FXR. […] Detailed description of the methods, data and analysis methods for this dataset will be presented in a separate publication.

ABCB11 = test: CLZD_ABCB11: Change in expression of ABCB11 (primary human hepatocytes); format: cell-based; settings: 24 hr
Procedure: as §1, §2

CYP1A1 = test: CLZD_CYP1A1: Change in expression of CYP1A1 (primary human hepatocytes); format: cell-based; settings: 24 hr
In short: (§3)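 Primary human hepatocytes exposed to 5 concentrations (0.004-40 µM) for 6, 24 or 48 hr; transcript levels measured by multiplexed quantitative nuclease protection assay. Markers of nuclear receptor pathways: CYP1A1 (AhR), CYP2B6 and ABCB1 (CAR), CYP3A4 (PXR).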

CYP1A2 = test: CLZD_CYP1A2: Change in expression of CYP1A2 (primary human hepatocytes); format: cell-based; settings: 24 hr
In short: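 Cultured primary human hepatocytes treated with chemicals for 6, 24 or 48 hr across five concentrations spanning 0.004-40 µM, then transcript level measured by quantitative nuclease protection in a multiplexed format.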

CYP2B6 = test: CLZD_CYP2B6: Change in expression of CYP2B6 (primary human hepatocytes); format: cell-based; settings: 24 hr
In short: as §3

CAR (NR1I3) = molecular target: T2, CAR (NR1I3) (Homo sapiens, UniProt Q14994); test: ATG_PBREM_CIS: Factorial reporter gene assay (HepG2); format: cell-based; parameters: endogenous in cells; host or cells: HepG2
T2 sequence (Q14994 1-352): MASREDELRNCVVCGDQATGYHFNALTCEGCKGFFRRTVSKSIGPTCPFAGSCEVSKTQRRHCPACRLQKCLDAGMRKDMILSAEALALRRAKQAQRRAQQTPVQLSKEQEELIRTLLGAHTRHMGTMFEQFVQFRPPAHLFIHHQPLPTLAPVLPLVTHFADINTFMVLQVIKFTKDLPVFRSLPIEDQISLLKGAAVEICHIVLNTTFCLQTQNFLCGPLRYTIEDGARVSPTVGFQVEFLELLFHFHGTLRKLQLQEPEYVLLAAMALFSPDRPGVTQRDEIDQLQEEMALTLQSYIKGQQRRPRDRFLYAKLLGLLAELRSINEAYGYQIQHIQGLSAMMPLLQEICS
Procedure: A multiple reporter transcription unit (MRTU) library consisting of 48 transcription factor binding sites was transfected into the HepG2 human liver hepatoma cell line. In addition to the cis-acting reporter genes (CIS), a modification of the approach was used to generate a trans-system (TRANS) with a mammalian one-hybrid assay consisting of an additional 25 MRTU library reporting the activity of nuclear receptor super-family members. […] These assays were performed by Attagene Inc. (Morrisville NC) under contract to EPA.
In addition to the cis-acting reporter genes (CIS), a modification of the approach was used to generate a trans-system (TRANS) with a mammalian one-hybrid assay consisting of an additional 25 MRTU library reporting the activity of nuclear receptor super-family members. […] Chemicals were then tested in the CIS and TRANS assays at seven concentrations starting at the MTC and followed by three-fold serial dilutions. These assays were performed by Attagene Inc. (Morrisville NC) under contract to EPA. Detailed description of the methods, data and analysis methods for this dataset will be presented in a separate publication.

[4] = molecular target: T3, AHR (aryl hydrocarbon receptor) (Homo sapiens, UniProt P35869); test: ATG_Ahr_CIS: Factorial reporter gene assay (multiplexed transcription reporter, HepG2); format: cell-based; settings: HepG2 reporter
T3 construct: endogenous in cells; host or cells: HepG2
T3 sequence (P35869 11-848): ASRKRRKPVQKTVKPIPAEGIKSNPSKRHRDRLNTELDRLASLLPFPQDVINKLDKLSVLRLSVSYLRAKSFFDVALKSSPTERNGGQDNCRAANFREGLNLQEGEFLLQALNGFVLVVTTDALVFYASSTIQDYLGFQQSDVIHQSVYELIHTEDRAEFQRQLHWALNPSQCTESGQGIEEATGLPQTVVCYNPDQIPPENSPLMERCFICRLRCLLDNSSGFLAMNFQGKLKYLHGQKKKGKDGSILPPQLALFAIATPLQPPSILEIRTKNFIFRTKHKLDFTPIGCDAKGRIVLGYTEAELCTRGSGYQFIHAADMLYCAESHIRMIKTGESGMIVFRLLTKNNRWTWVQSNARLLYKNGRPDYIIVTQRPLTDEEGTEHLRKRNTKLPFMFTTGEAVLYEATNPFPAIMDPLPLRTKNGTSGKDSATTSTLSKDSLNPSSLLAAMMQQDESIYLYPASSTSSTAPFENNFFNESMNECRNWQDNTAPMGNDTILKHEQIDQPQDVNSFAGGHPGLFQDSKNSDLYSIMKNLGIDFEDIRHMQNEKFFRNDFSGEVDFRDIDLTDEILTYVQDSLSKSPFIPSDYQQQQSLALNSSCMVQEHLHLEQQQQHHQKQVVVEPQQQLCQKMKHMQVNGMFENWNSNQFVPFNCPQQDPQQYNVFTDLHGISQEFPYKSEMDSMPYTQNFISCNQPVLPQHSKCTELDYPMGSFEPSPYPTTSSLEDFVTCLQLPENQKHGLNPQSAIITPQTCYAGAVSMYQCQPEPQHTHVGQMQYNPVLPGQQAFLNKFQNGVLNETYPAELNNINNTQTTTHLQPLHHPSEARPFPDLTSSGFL
In short: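 HepG2 cells transfected with multiplexed reporter libraries: cis-acting binding-site reporters (CIS) and a one-hybrid nuclear-receptor trans system (TRANS). Chemicals tested at seven concentrations, starting at the maximum tolerated concentration with three-fold serial dilutions.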

CYP3A4 = test: CLZD_CYP3A4: Change in expression of CYP3A4 (primary human hepatocytes); format: cell-based; settings: 24 hr
In short: as §3

CCCOc1nn(C(=O)[N-]S(=O)(=O)c2ccccc2C(=O)OC)c(=O)n1C.[Na+] [r264]
NCGC_LXR_Agonist (LXRa (NR1H2)): 4.648
CHR_Rat_Liver_1_AnyLesion (Rat Liver [1]; rat liver): 0
CHR_Rat_Liver_2_PreneoplasticLesion (Rat Liver [2]; rat liver): 0
CHR_Rat_Liver_3_NeoplasticLesion (Rat Liver [3]; rat liver): 0
ATG_PXRE_CIS (PXR (NR1I2); HepG2 reporter): 4.252

C#CCOS(=O)OC1CCCCC1Oc1ccc(C(C)(C)C)cc1 (centres unmarked) [r259]
CLZD_ABCB1_24 (ABCB1): 5.227
CLZD_ABCB11_24 (ABCB11): 4.813
CLZD_CYP1A1_24 (CYP1A1): 4.821
CLZD_CYP1A2_24 (CYP1A2): 5.07
CLZD_CYP2B6_24 (CYP2B6): 5.314
CHR_Rat_Liver_1_AnyLesion (Rat Liver [1]; rat): 0
CHR_Rat_Liver_2_PreneoplasticLesion (Rat Liver [2]; rat): 0
CHR_Rat_Liver_3_NeoplasticLesion (Rat Liver [3]; rat): 0
ATG_PBREM_CIS (CAR (NR1I3); HepG2): 5.854
ATG_PXRE_CIS (PXR (NR1I2); HepG2): 6.18

CCCN(CC)CC1COC2(CCC(C(C)(C)C)CC2)O1 (centres unmarked) [r286]
ATG_Ahr_CIS [4]: 4.444
CLZD_CYP2B6_24 (CYP2B6): 4.532
CLZD_CYP3A4_24 (CYP3A4): 5.192
CHR_Rat_Liver_1_AnyLesion (Rat Liver [1]; rat liver): 0
CHR_Rat_Liver_2_PreneoplasticLesion (Rat Liver [2]; rat liver): 0
CHR_Rat_Liver_3_NeoplasticLesion (Rat Liver [3]; rat liver): 0
ATG_PBREM_CIS (CAR (NR1I3); HepG2 reporter): 4.721
ATG_PXRE_CIS (PXR (NR1I2); HepG2 reporter): 4.886
